# Tests used:
# UACC-62 = assay: Cytotoxicity against human UACC62 cells after 48 hrs by SRB assay; format: functional, cell-based; conditions: UACC-62, 48 h
# [1] = Ratio of IC50 for bovine brain Vo domain of V-ATPase activity to IC50 for human UACC62 cells; set-up: species or system UACC-62
# [2] = Inhibition of bovine brain Vo domain of V-ATPase activity assessed as ATP-mediated proton translocation by spectrophotometric analysis; set-up: species or system Bos taurus
# [3] = Cytotoxicity against human NCI60 cells; format: functional; conditions: read-out: LC50 (the source's name)
smiles,measurement,setting,value
CC(C)=CC(=O)N/C=C/C(C)=C/[C@@H](C)[C@H]1C/C(C)=C/C=C/CC[C@H](OC(N)=O)[C@@H](O)/C=C/[C@@H](O)CCC/C=C/C(=O)O1 [PALMEROLIDE A],IC50,UACC-62,0.024 µM
same,Ratio IC50,[1],0.083
same,IC50,[2],0.002 µM
same,CC50,[3],0.018 µM
C=C(C)C/C(C)=C\C(=O)N/C=C/C(C)=C/[C@@H](C)[C@H]1C/C(C)=C/C=C/CC[C@H](OC(N)=O)[C@@H](O)/C=C/[C@@H](O)CCC/C=C/C(=O)O1 [PALMEROLIDE D],IC50,UACC-62,0.002 µM
same,Ratio IC50,[1],12.5
same,IC50,[2],0.025 µM
C/C(C=O)=C\[C@@H](C)[C@H]1C/C(C)=C/C=C/CC[C@H](OC(N)=O)[C@@H](O)/C=C/[C@@H](O)CCC/C=C/C(=O)O1 [PALMEROLIDE E],IC50,UACC-62,5000 µM
same,Ratio IC50,[1],>2
same,IC50,[2],> 10000 µM
C=C(C)CC(=O)N/C=C/C(C)=C/[C@@H](C)[C@H]1C/C(C)=C/C=C/CC[C@H](OC(N)=O)[C@@H](O)/C=C/[C@@H](O)CCC/C=C/C(=O)O1 [PALMEROLIDE F],IC50,UACC-62,0.758 µM
same,Ratio IC50,[1],0.083
same,IC50,[2],0.063 µM
CC(C)=CC(=O)N/C=C/C(C)=C\[C@@H](C)[C@H]1C/C(C)=C/C=C/CC[C@H](OC(N)=O)[C@@H](O)/C=C/[C@@H](O)CCC/C=C/C(=O)O1 [PALMEROLIDE G],IC50,UACC-62,1.21 µM
same,Ratio IC50,[1],0.006
same,IC50,[2],0.007 µM
